Measured values taken from US5081232A, “Complexes of TC99m radiopharmaceuticals” (priority 1987, dated 1992).
Like-named read-outs stand apart in the source and are kept apart here.

Experiments:
[1] = Electrophoresis (behaviour of complex under electrophoretic conditions); format: physicochemical; conditions: Tc-99 and Tc-99m
Procedure: A 0.1 g Agarose/10 cm^3 50 mM Phosphate buffer pH 7.4 gel was run at an applied potential of 300 VV for approximately 35 mins, using bromophenol blue indicator (this indicator moves towards the […]). The resulting distribution of activity was determined using suitable equipment.

[2] = Animal biodistribution (in vivo, i.v. injection); conditions: rats; for Blood, % injected dose/organ: blood taken as 5.8% of body weight; for Muscle, % injected dose/organ: muscle taken as 43% of body weight
Procedure: (§1) 0.1 ml Tc^99m prep was injected i.v. into a lateral tail vein of 6 anaesthetised rats.
(§2) At 2 minutes and 60 minutes post injection, 3 rats were sacrificed by decapitation, bled from the neck and dissected. The following organs were removed at dissection: kidney, bladder(+urine), lung, liver, spleen, stomach, small intestine, large intestine, brain (weighed), heart (weighed), thyroid, and samples of blood (weighed) and muscle (weighed, the residual carcass and the tail (injection site). Subsequently samples were counted in an automatic twin crystal gamma counter.
(§3) Percentage biodistribution of injected material was calculated (after correction for background) for all organs using the formula: [formula]
(§4) Since only samples of muscle and blood were taken, the percentage in these tissues was calculated assuming blood and muscle to represent 5.8 and 43% of total animal weight respectively using the formula: [formula] where CF= 0.058 for blood

[3] = rat, in vivo, iv
Procedure: as §1, §2, §3, §4

Structure (SMILES): CC(=O)C=C(C)[O][99Tc-]([Cl])([Cl])([Cl])[N]=O [[^99 Tc(NO)Cl3 (acac)]^-, trichloro(pentan-2,4-dionato) nitrosyltechnetium(II) anion]
- Stability under electrophoretic conditions [1]: decomposed under electrophoretic conditions
- Brain, % injected dose/organ ([2]; 2 min p.i.): 0.10 % injected dose/organ
- Heart, % injected dose/organ ([2]; 2 min p.i.): 0.56 % injected dose/organ
- Heart/Blood Counts/Gram ratio ([2]; 2 min p.i.): 2.2
- Heart/Liver Counts/Gram ratio ([2]; 2 min p.i.): 2.30
- Heart/Lung Counts/Gram ratio ([2]; 2 min p.i.): 1.12
- Heart/Muscle Counts/Gram ratio ([2]; 2 min p.i.): 2.19
- Kidney + Urine, % injected dose/organ ([2]; 2 min p.i.): 1.61 % injected dose/organ
- Liver + GI, % injected dose/organ ([2]; 2 min p.i.): 0.00 % injected dose/organ
- Liver, % injected dose/organ ([2]; 2 min p.i.): 3.12 % injected dose/organ
- Lung, % injected dose/organ ([2]; 2 min p.i.): 0.73 % injected dose/organ
- Blood, % injected dose/organ ([2]; 2 min p.i.): 3.56 % injected dose/organ
- Muscle, % injected dose/organ ([2]; 2 min p.i.): 27.9 % injected dose/organ
- Brain, % injected dose/organ ([2]; 60 min p.i.): 0.05 % injected dose/organ
- Heart, % injected dose/organ ([2]; 60 min p.i.): 0.23 % injected dose/organ
- Heart/Blood Counts/Gram ratio ([2]; 60 min p.i.): 1.76
- Heart/Liver Counts/Gram ratio ([2]; 60 min p.i.): 0.39
- Heart/Lung Counts/Gram ratio ([2]; 60 min p.i.): 0.74
- Heart/Muscle Counts/Gram ratio ([2]; 60 min p.i.): 1.84
- Kidney + Urine, % injected dose/organ ([2]; 60 min p.i.): 13.55 % injected dose/organ
- Liver + GI, % injected dose/organ ([2]; 60 min p.i.): 0.00 % injected dose/organ
- Liver, % injected dose/organ ([2]; 60 min p.i.): 8.27 % injected dose/organ
- Lung, % injected dose/organ ([2]; 60 min p.i.): 0.53 % injected dose/organ
- Blood, % injected dose/organ ([2]; 60 min p.i.): 2.00 % injected dose/organ
- Muscle, % injected dose/organ ([2]; 60 min p.i.): 14.37 % injected dose/organ

Structure (SMILES): CCP(CC)CCP(CC)CC.CCP(CC)CCP(CC)CC.O=[N][99Tc+][Cl].[Cl-] [[^99m Tc(NO(DEPE)2 Cl]^+]
- Blood, % injected dose/organ ([3]; 2 min): 6.00 % injected dose/organ
- Heart, % injected dose/organ ([3]; 2 min): 1.06 % injected dose/organ
- Heart/Blood Counts/Gram ratio ([3]; 2 min): 3.03
- Heart/Liver Counts/Gram ratio ([3]; 2 min): 0.73
- Heart/Lung Counts/Gram ratio ([3]; 2 min): 0.4
- Heart/Muscle Counts/Gram ratio ([3]; 2 min): 5.94
- Kidney + Urine, % injected dose/organ ([3]; 2 min): 13.8 % injected dose/organ
- Liver + GI, % injected dose/organ ([3]; 2 min): 37.3 % injected dose/organ
- Liver, % injected dose/organ ([3]; 2 min): 23.63 % injected dose/organ
- Lung, % injected dose/organ ([3]; 2 min): 2.98 % injected dose/organ
- Muscle, % injected dose/organ ([3]; 2 min): 22.9 % injected dose/organ
- Blood, % injected dose/organ ([3]; 60 min): 0.41 % injected dose/organ
- Heart, % injected dose/organ ([3]; 60 min): 0.92 % injected dose/organ
- Heart/Blood Counts/Gram ratio ([3]; 60 min): 38.1
- Heart/Liver Counts/Gram ratio ([3]; 60 min): 1.75
- Heart/Lung Counts/Gram ratio ([3]; 60 min): 0.6
- Heart/Muscle Counts/Gram ratio ([3]; 60 min): 6.18
- Kidney + Urine, % injected dose/organ ([3]; 60 min): 19.3 % injected dose/organ
- Liver + GI, % injected dose/organ ([3]; 60 min): 47.0 % injected dose/organ
- Liver, % injected dose/organ ([3]; 60 min): 7.54 % injected dose/organ
- Lung, % injected dose/organ ([3]; 60 min): 1.57 % injected dose/organ
- Muscle, % injected dose/organ ([3]; 60 min): 19.1 % injected dose/organ

Structure (SMILES): CCCP(C)CCP(C)CCC.CCCP(C)CC[P](C)(CCC)[99Tc+]([Cl])[N]=O (stereo not drawn) [[^99m Tc(NO) × (PMPE)2]^+]
- Heart/Lung Counts/Gram ratio ([2]; 2 min p.i.): 1.0
- Blood, % injected dose/organ ([3]; 2 min): 3.27 % injected dose/organ
- Heart, % injected dose/organ ([3]; 2 min): 0.92 % injected dose/organ
- Heart/Blood Counts/Gram ratio ([3]; 2 min): 4.15
- Heart/Liver Counts/Gram ratio ([3]; 2 min): 0.44
- Heart/Muscle Counts/Gram ratio ([3]; 2 min): 4.78
- Kidney + Urine, % injected dose/organ ([3]; 2 min): 13.3 % injected dose/organ
- Liver + GI, % injected dose/organ ([3]; 2 min): 44.7 % injected dose/organ
- Liver, % injected dose/organ ([3]; 2 min): 27.4 % injected dose/organ
- Lung, % injected dose/organ ([3]; 2 min): 1.40 % injected dose/organ
- Muscle, % injected dose/organ ([3]; 2 min): 21.1 % injected dose/organ
- Blood, % injected dose/organ ([3]; 60 min): 0.42 % injected dose/organ
- Heart, % injected dose/organ ([3]; 60 min): 0.77 % injected dose/organ
- Heart/Blood Counts/Gram ratio ([3]; 60 min): 27.8
- Heart/Liver Counts/Gram ratio ([3]; 60 min): 1.65
- Heart/Lung Counts/Gram ratio ([3]; 60 min): 2.3
- Heart/Muscle Counts/Gram ratio ([3]; 60 min): 5.01
- Kidney + Urine, % injected dose/organ ([3]; 60 min): 15.2 % injected dose/organ
- Liver + GI, % injected dose/organ ([3]; 60 min): 53.6 % injected dose/organ
- Liver, % injected dose/organ ([3]; 60 min): 6.23 % injected dose/organ
- Lung, % injected dose/organ ([3]; 60 min): 0.53 % injected dose/organ
- Muscle, % injected dose/organ ([3]; 60 min): 17.5 % injected dose/organ
